Test results published in article PMC11502443 (Frontiers in Pharmacology, 2024).
Changes are numbered by the printed parent chain.

Columns and labels:
[1] = target: T1, human WT GIP receptor (E354) (Homo sapiens, UniProt P48546); test: IP1 accumulation (IP-one Gq kit), WT GIP receptor; assay type: cell-based
T1 construct: host or cells: Cos7 cells, transient transfection with PEI, pcDNA3.1+
T1 sequence (P48546 22-466): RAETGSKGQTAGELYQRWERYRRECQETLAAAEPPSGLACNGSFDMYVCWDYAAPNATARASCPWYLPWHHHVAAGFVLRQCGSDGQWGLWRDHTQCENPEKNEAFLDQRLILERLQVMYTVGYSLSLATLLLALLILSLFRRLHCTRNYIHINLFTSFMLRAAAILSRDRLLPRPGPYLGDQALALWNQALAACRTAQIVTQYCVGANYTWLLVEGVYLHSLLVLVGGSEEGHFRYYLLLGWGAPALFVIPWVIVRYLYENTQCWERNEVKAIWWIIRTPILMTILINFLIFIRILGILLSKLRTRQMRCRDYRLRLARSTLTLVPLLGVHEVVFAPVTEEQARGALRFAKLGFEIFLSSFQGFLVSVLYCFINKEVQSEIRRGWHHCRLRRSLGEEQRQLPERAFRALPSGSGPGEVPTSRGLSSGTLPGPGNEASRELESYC
Description: (§1) Using a PCR thermocycler (Applied Biosystems PCR system 9700, ThermoFisher, CA, United States), the DNA was initially denatured at 95°C for 2 min, followed by 25 cycles of 98°C for 30 s, 66°C for 15 s and 72°C for 3.5 min. Following the PCR reaction, 1 μL Dpn1 was added, and the DNA transformed into XL.10-gold Ultracompetent E. coli (Agilent Technologies, CA, United States). Plasmid DNA was purified using the NucleoBond Xtra Maxi kit (Macherey-Nagel, Germany) and sequenced prior to use (Centre for Genomics, Proteomics and Metabolomics, University of Auckland).
Cos7 cells were cultured and transfected as previously described ([Tasma et al., 2022]; [Bower et al., 2018]). […]
The IP-one Gq assay kit (Cisbio, PerkinElmer) was used to quantify accumulated myo-inositol-1-phosphate (IP1), a by-product of IP3 produced after receptor-mediated Gαq activation in Cos7 cells, as previously described ([Tasma et al., 2022]; [Bower et al., 2018]). […] Samples were processed as previously described and read using an Envision plate reader (PerkinElmer). IP1 concentrations were determined from a standard curve generated in duplicate.
(§2) All data were plotted and analyzed using GraphPad Prism 8.0 (GraphPad Software Inc.). […]

[2] = target: T1, human WT GIP receptor (E354); test: AKT phosphorylation (AlphaLISA pAKT Ser473), WT GIP receptor; assay type: cell-based; conditions: for Emax: read-out: Emax pAKT
Description: as §1
(§3) Cos7 cells were cultured and transfected as previously described ([Tasma et al., 2022]; [Bower et al., 2018]). Briefly, Cos7 cells were cultured in DMEM supplemented with 8% fetal bovine serum (FBS) in a 37°C humidified incubator with 5% CO2 and seeded into 96-well SpectraPlates at a density of 20,000 cells per well 24 h prior to transfection. […] All plasmid sequences were verified prior to use.
(§4) Phosphorylated (p) Protein Kinase B (AKT), extracellular signal-regulated kinase 1/2 (ERK1/2) and CREB were detected using the AlphaLISA SureFire Ultra pAKT (Ser473), AlphaLISA SureFire Ultra pERK1/2 (Thr202/Tyr204) or AlphaLISA SureFire Ultra pCREB (Ser133) assay kit (PerkinElmer) as per the manufacturer’s protocol. Briefly, Cos7 cells were serum-starved in assay media (DMEM +0.1% BSA) for 4 h at 37°C with 5% CO2 prior to peptide stimulation. Peptides were serially diluted in assay media, and cells were incubated with assay media alone or each concentration of peptide for 15 min. FBS (50%) in pERK1/2 and pAKT or 50 μM forskolin in pCREB assays were used as positive controls. Media was then aspirated, and the cells were lysed in 40 μL of the kit lysis buffer, followed by shaking for 10–15 min at room temperature. Ten microliters of cell lysate was transferred to a white 384-well OptiPlate. […] Plates were read on an Envision plate reader (PerkinElmer). […]
as §2

[3] = target: T2, human GIP receptor E354Q variant (Homo sapiens, UniProt P48546, E354Q); test: AKT phosphorylation (AlphaLISA pAKT Ser473), E354Q GIP receptor; assay type: cell-based; conditions: for Emax: read-out: Emax pAKT
T2 construct: expressed in transfected cells; host or cells: Cos7 cells, transient transfection with PEI, pcDNA3.1+; mutant plasmid made in house from the purchased WT construct
T2 sequence (P48546 22-466 E354Q): T1 sequence (P48546 22-466) with E333Q
Description: as §1, §3, §4, §2

[4] = target: T1, human WT GIP receptor (E354); test: ERK1/2 phosphorylation (AlphaLISA pERK1/2 Thr202/Tyr204), WT GIP receptor; assay type: cell-based; conditions: read-out: Emax pERK1/2
Description: as §1
(§5) Cos7 cells were cultured and transfected as previously described ([Tasma et al., 2022]; [Bower et al., 2018]). Briefly, Cos7 cells were cultured in DMEM supplemented with 8% fetal bovine serum (FBS) in a 37°C humidified incubator with 5% CO2 and seeded into 96-well SpectraPlates at a density of 20,000 cells per well 24 h prior to transfection. […]
(§6) Phosphorylated (p) Protein Kinase B (AKT), extracellular signal-regulated kinase 1/2 (ERK1/2) and CREB were detected using the AlphaLISA SureFire Ultra pAKT (Ser473), AlphaLISA SureFire Ultra pERK1/2 (Thr202/Tyr204) or AlphaLISA SureFire Ultra pCREB (Ser133) assay kit (PerkinElmer) as per the manufacturer’s protocol. […] Plates were read on an Envision plate reader (PerkinElmer). […]
as §2

[5] = target: T2, human GIP receptor E354Q variant; test: ERK1/2 phosphorylation (AlphaLISA pERK1/2 Thr202/Tyr204), E354Q GIP receptor; assay type: cell-based; conditions: read-out: Emax pERK1/2
Description: as §1, §5, §6, §2

[6] = target: T1, human WT GIP receptor (E354); test: CREB phosphorylation (AlphaLISA pCREB Ser133), WT GIP receptor; assay type: cell-based; conditions: for Emax: read-out: Emax pCREB
Description: as §1, §3, §4, §2

[7] = target: T2, human GIP receptor E354Q variant; test: CREB phosphorylation (AlphaLISA pCREB Ser133), E354Q GIP receptor; assay type: cell-based; conditions: read-out: Emax pCREB
Description: as §1, §5, §6, §2

[8] = system: albumin; conditions: cited from earlier work
Text: Understanding the signalling of GIP receptors is essential to elucidating their physiological effects and exploiting this receptor as a drug target. The GIP receptor is often reported to couple to Gαs alone ([Oduori et al., 2020b]). […] This indicates potential coupling to Gαq, as IP1 is a stable by-product of IP3 ([Garbison et al., 2004]). The induction of cAMP accumulation by the endogenous GIP agonists was similar to previous studies ([Hansen et al., 2016]; [Yuliantie et al., 2021]). Tirzep ...

| SMILES | EC50 ([1]; WT, Cos7, 90 min, 37°C, DMEM + 0.1% BSA + 1% 10 mM LiCl, mean ± s.e.m., n = 5, read-out: pEC50 IP1 (converted)) | EC50 ([2]; WT, Cos7, 15 min, DMEM + 0.1% BSA, mean ± s.e.m., n = 3) | Emax [2] | EC50 ([3]; E354Q, Cos7, 15 min, DMEM + 0.1% BSA, mean ± s.e.m., n = 3) | Emax [3] | Emax [4] | Emax [5] | EC50 ([6]; WT, Cos7, 15 min, DMEM + 0.1% BSA, mean ± s.e.m., n = 3, read-out: pEC50 pCREB (converted)) | Emax [6] | Emax [7] | Emax ([1]; read-out: Emax IP1, % of maximal response) | albumin binding [8] |
| --- | --- | --- | --- | --- | --- | --- | --- | --- | --- | --- | --- | --- |
| CC[C@H](C)[C@H](NC(=O)[C@H](CO)NC(=O)[C@H](Cc1ccc(O)cc1)NC(=O)[C@H](CC(=O)O)NC(=O)[C@H](CO)NC(=O)[C@@H](NC(=O)[C@H](Cc1ccccc1)NC(=O)[C@@H](NC(=O)CNC(=O)[C@H](CCC(=O)O)NC(=O)[C@H](C)NC(=O)[C@@H](N)Cc1ccc(O)cc1)[C@@H](C)O)[C@@H](C)CC)C(=O)N[C@@H](C)C(=O)N[C@@H](CCSC)C(=O)N[C@@H](CC(=O)O)C(=O)N[C@@H](CCCCN)C(=O)N[C@H](C(=O)N[C@@H](Cc1c[nH]cn1)C(=O)N[C@@H](CCC(N)=O)C(=O)N[C@@H](CCC(N)=O)C(=O)N[C@@H](CC(=O)O)C(=O)N[C@@H](Cc1ccccc1)C(=O)N[C@H](C(=O)N[C@@H](CC(N)=O)C(=O)N[C@@H](Cc1c[nH]c2ccccc12)C(=O)N[C@@H](CC(C)C)C(=O)N[C@@H](CC(C)C)C(=O)N[C@@H](C)C(=O)N[C@@H](CCC(N)=O)C(=O)N[C@@H](CCCCN)C(N)=O)C(C)C)[C@@H](C)CC [GIP(1-30)NH2] | 1.62 nM | 1.48 nM | 97.1 ± 4.56% | 0.813 nM | 50.9 ± 1.72% | 117 ± 3.91% | 73.9 ± 9.75% | 0.0631 nM | 117 ± 8.75% | 70.7 ± 32.9% | – | – |
| CC[C@H](C)[C@H](NC(=O)[C@H](CC(C)C)NC(=O)[C@H](Cc1c[nH]c2ccccc12)NC(=O)[C@H](CCC(N)=O)NC(=O)[C@@H](NC(=O)[C@H](Cc1ccccc1)NC(=O)[C@H](C)NC(=O)[C@H](CCCCNC(=O)COCCOCCNC(=O)COCCOCCNC(=O)CC[C@H](NC(=O)CCCCCCCCCCCCCCCCCCC(=O)O)C(=O)O)NC(=O)[C@H](CCC(N)=O)NC(=O)[C@H](C)NC(=O)[C@@H](NC(=O)[C@H](CCCCN)NC(=O)[C@H](CC(=O)O)NC(=O)[C@H](CC(C)C)NC(=O)C(C)(C)NC(=O)[C@@H](NC(=O)[C@H](CO)NC(=O)[C@H](Cc1ccc(O)cc1)NC(=O)[C@H](CC(=O)O)NC(=O)[C@H](CO)NC(=O)[C@@H](NC(=O)[C@H](Cc1ccccc1)NC(=O)[C@@H](NC(=O)CNC(=O)[C@H](CCC(=O)O)NC(=O)C(C)(C)NC(=O)[C@@H](N)Cc1ccc(O)cc1)[C@@H](C)O)[C@@H](C)O)[C@@H](C)CC)[C@@H](C)CC)C(C)C)C(=O)N[C@@H](C)C(=O)NCC(=O)NCC(=O)N1CCC[C@H]1C(=O)N[C@@H](CO)C(=O)N[C@@H](CO)C(=O)NCC(=O)N[C@@H](C)C(=O)N1CCC[C@H]1C(=O)N1CCC[C@H]1C(=O)N1CCC[C@H]1C(=O)N[C@@H](CO)C(N)=O [Tirzepatide] | – | – | 87.7 ± 2.6% | – | 51.9 ± 8.95% | – | 80.2 ± 17.3% | – | 91.5 ± 10.9% | 59.4 ± 34.8% | 54.9% | binds to albumin |
